In experiment [1] the test system is ID8 murine ovarian cancer cells. Briefly: cells. The following applies: Mus musculus. As to the method:
(§1) Drug Titrations: TAXOL was titered to determine the concentrations used in combination with AMD3100. Cells were cultured in 96-well black assay plates with optically clear bottoms (500 and 2500 cells per well were tested), including a standard curve plate. ID8 cells were then exposed to increasing concentrations of paclitaxel (1, 0.5, 0.15, 0.05, 0.015, and 0.005 μM), and TOV cells were exposed to 15, 5, and 1 nM Taxol for 48 or 96 hr. Proliferation was measured by measuring the amount of dsDNA using CyQuant reagent and read on a Perkin Elmer Envision 2103. AMD3100 (50, 25, 10, 5, 2.5, and 1 μM) was titered in the same manner. Each condition was done in triplicate. Drugs were not replenished during any of the experiments. Data was analyzed in Prism 7.
(§2) Simultaneous Delivery of Small Molecules and Chemotherapy: To determine the effect of AMD3100 alone or in combination with TAXOL, cell proliferation was measured by seeding 2500 TOV cells and 500 ID8 cell per well in a clear bottom 96-well black assay plates. AMD3100 (final concentrations: 10 μM for ID8 and 2.5 μM for TOV) and Paclitaxel (final concentrations: 15 and 5 nM for ID8 cells and 5 and 1 nM for TOV cells) were mixed with DMEM. 100 μL of the mixture was added to the cells. Each condition was done in triplicate. Plates were incubated at 37° C. with 5% CO2 for 72 hr (ID8) and 96 hr (TOV-112D). Standard curve plates were washed the same day the experiment was done. Plates were stored at −80° C. after washing and proliferation rate was measured then by CyQuant assay.

Experiment [2] concerns ID8 cells. Briefly: Soft-agar colony formation, ID8. It counts as cell-based, murine. As to the method:
(§3) ID8 and TOV Colony Formation in The Presence of Small Molecules and/or Chemotherapy: Bottom Layer Hard Agar: 2×DMEM and 0.8% agar stock was prepared and adjusted to 42° C. in a water bath for 30 min. The agar and 2×DMEM were mixed (1:2). 500 μL of the mixture was then added to each well of a 24 well plate, and the plate was rocked to distribute evenly and allowed to solidify at room temperature in a tissue culture hood. Upper Layer Soft Agar: 0.6% agar stock was prepared adjusted to 42° C. in a water bath for 30 min. During this time, ID8 cells were trypsinized, and 40,000 cells per mL suspension in 1×DMEM was made. Cell suspensions were then mixed with soft agar stock (1:2) and 500 μL of the mixture was then added to each well. Each condition was in triplicate.
Drug-DMEM stocks were made to achieve the proper concentrations in 1.1 mL, the total volume of each well: AMD3100 (10 μM and 1 μM for ID8 cells, 5 μM and 2.5 μM for TOV cells) and TAXOL (0.015 μM and 0.005 μM). 100 μL of each drug was added to the relative wells in triplicate. Plates were then incubated in a humidified incubator with […] for 20-30 days. At the end of the experiment, each well was stained with 0.005% crystal violet in 15% ethanol (140 μL per well) and plates were incubated again for several hours then photos were taken using a microscope. ID8 Colonies equal or bigger […] and TOV colonies equal or bigger than […] were counted using Image J software.

For the next experiment, the system named is human ovarian cancer. Particulars: reported; read-out: IC50 of paclitaxel in human ovarian cancer; cited from earlier work.
Experiment [3] concerns TOV-112D cells. Particulars: control media, then TAXOL 1 nM 96 hr. As to the method:
(§4) Sequential Delivery of Small Molecules and Chemotherapy: ID8 cells were exposed to AMD3100 in a 6 well plate (2.5×10^5 cells/well) for 72 hr. Cells were then washed and counted. Cell viability was checked by propidium iodide. For each condition, 500 cells per well of viable ID8 cells were then seeded into a 96 well black assay plate. ID8 cells were then incubated in DMEM containing a carrier, AMD3100 10 μM, TAXOL 0.005 μM, or both for another 72 hr. For TOV-112D cells, initial 72 hr incubation was with AMD3100 5 μM, followed by 96 hr incubation in media containing AMD3100 5 μM, TAXOL 1 nM, or both. At the conclusion of the experiment, plates were washed and dsDNA was measured via CyQuant assay.

Experiment [4] has as its system ID8 cells. Particulars: ID8, no AMD3100 pre-treatment, re-plated in TAXOL 0.005 μM 72 hr. As for the experimental part: as §4
Experiment [5] deals with TOV-112D cells. Briefly: Soft-agar colony formation, TOV-112D. The format is cell-based, human. As to the method:
as §3
[…] 100 μL of each drug was added to the relative wells in triplicate. Plates were then incubated in a humidified incubator with […] for 20-30 days. At the end of the experiment, each well was stained with 0.005% crystal violet in 15% ethanol (140 μL per well) and plates were incubated again for several hours then photos were taken using a microscope. ID8 Colonies equal or bigger […] and TOV colonies equal or bigger than […] were counted using Image J software.

Experiment [6] has as its system TOV-112D human ovarian cancer cells. Briefly: cells. As for the experimental part: as §1
as §2, with “Plates were incubated at 37° C. with 5% CO2 for 72 hr (ID8) and 96 hr (TOV-112D).” left out

This is an account of results in patent US20190133998A1, “TREATMENT OF TUMORS WITH INHIBITORS OF CXCL12 SIGNALING AND SUBT[…] OF CHEMOTHERAPEUTIC AGENTS” (THE GENERAL HOSPITAL CORPORATION, priority 2016, published 2019).

“And” between values parts separate entries of the source, which are not always exact repeats. Identical values can stand only once. Like-named read-outs stand apart in the source and are kept apart here. Bounds are passed on as bounds.

As to `CC(=O)O[C@H]1C(=O)[C@@]2(C)[C@H]([C@H](OC(=O)c3ccccc3)[C@]3(O)C[C@H](OC(=O)[C@H](O)[C@@H](NC(=O)c4ccccc4)c4ccccc4)C(C)=C1C3(C)C)[C@]1(OC(C)=O)CO[C@@H]1C[C@@H]2O` [TAXOL, Paclitaxel], the IC50 is 5 nM in experiment [1] (ID8, 72 h, read-out: IC50, ID8 cell proliferation); 5 nM in experiment [1] (read-out: IC50, ID8 murine ovarian cancer cells); not above 3000 nM in the experiment on human ovarian cancer; 2.5 nM in experiment [6] (Homo sapiens, TOV112D, read-out: IC50, human ovarian cancer cells (TOV)). Also, the inhibition at 0.005 µM stood at 50% in experiment [1] (ID8, read-out: proliferation inhibition) and 89% in experiment [6] (Homo sapiens, TOV112D, read-out: proliferation inhibition). Besides, the “reduced ID8 colony formation by” value in the experiment with ID8 cells [2] (TAXOL 5 nM) is 56% and 57%; in the experiment on ID8 cells [2] (TAXOL 15 nM), 94%. The “proliferation reduced by” value in the experiment on TOV-112D cells [3] amounted to 24%. The “cell proliferation reduced by” value with ID8 cells [4] was 50%. In the experiment with TOV-112D cells [5] (TAXOL 5 nM), the TOV-112D colony formation result is recorded as “completely preventing”. In addition, in the experiment with TOV-112D cells [5] (TOV-112D, TAXOL 1 nM alone, non-significant), the “reduced colony formation by” value amounted to 20%. Further, the “TOV-112D cell proliferation inhibition” value in experiment [6] (TAXOL 1 nM, after 72 hours) is recorded as “did not significantly inhibit”.
